From ChEMBL document CHEMBL1671722, “Comparative in vitro activity profiles of novel bis-indole antibacterials against gram-positive and gram-negative clinical isolates” (Antimicrob Agents Chemother, 2010)
Converted amounts (≈) assume the structure as drawn.

Assays:
[1] = test system: Staphylococcus epidermidis; assay: Antimicrobial activity against methicillin-resistant Staphylococcus epidermidis by broth microdilution method; type: functional
Acinetobacter baumannii [2] = assay: Antimicrobial activity against Acinetobacter baumannii by broth microdilution method; type: functional
Haemophilus influenzae = assay: Antimicrobial activity against Haemophilus influenzae by broth microdilution method; type: functional
Enterococcus faecalis [3] = assay: Antimicrobial activity against vancomycin-susceptible Enterococcus faecalis by broth microdilution method; type: functional
Burkholderia cepacia = assay: Antimicrobial activity against Burkholderia cepacia by broth microdilution method; type: functional
Streptococcus pneumoniae [4] = assay: Antimicrobial activity against penicillin-susceptible Streptococcus pneumoniae by broth microdilution method; type: functional
Klebsiella pneumoniae [5] = assay: Antimicrobial activity against ESBL-production Klebsiella pneumoniae by broth microdilution method; type: functional
Escherichia coli = assay: Antimicrobial activity against Escherichia coli by broth microdilution method; type: functional
Streptococcus agalactiae = assay: Antimicrobial activity against Streptococcus agalactiae by broth microdilution method; type: functional
Acinetobacter baumannii [6] = assay: Antimicrobial activity against multiple dug-resistant Acinetobacter baumannii by broth microdilution method; type: functional
Enterococcus faecium [7] = assay: Antimicrobial activity against vancomycin-resistant Enterococcus faecium by broth microdilution method; type: functional
[8] = Cytotoxicity against HeLa cells after 3 days by MTS assay; type: cell-based; conditions: human
Streptococcus pneumoniae [9] = assay: Antimicrobial activity against penicillin-intermediate Streptococcus pneumoniae by broth microdilution method; type: functional
Enterococcus faecium [10] = assay: Antimicrobial activity against vancomycin-susceptible Enterococcus faecium by broth microdilution method; type: functional
Proteus mirabilis = assay: Antimicrobial activity against Proteus mirabilis by broth microdilution method; type: functional
Serratia marcescens = assay: Antimicrobial activity against Serratia marcescens by broth microdilution method; type: functional
Clostridioides difficile = assay: Antimicrobial activity against Clostridium difficile by broth microdilution method; type: functional
[11] = test system: Staphylococcus epidermidis; assay: Antimicrobial activity against methicillin-susceptible Staphylococcus epidermidis by broth microdilution method; type: functional
Pseudomonas aeruginosa = assay: Antimicrobial activity against Pseudomonas aeruginosa by broth microdilution method; type: functional
Klebsiella pneumoniae [12] = assay: Antimicrobial activity against Klebsiella pneumoniae by broth microdilution method; type: functional
Enterococcus faecalis [13] = assay: Antimicrobial activity against vancomycin-resistant Enterococcus faecalis by broth microdilution method; type: functional
Staphylococcus aureus [14] = assay: Antimicrobial activity against methicillin-resistant Staphylococcus aureus by broth microdilution method; type: functional
Staphylococcus aureus [15] = assay: Antimicrobial activity against methicillin-susceptible Staphylococcus aureus by broth microdilution method; type: functional
Streptococcus pneumoniae [16] = assay: Antimicrobial activity against penicillin-resistant Streptococcus pneumoniae by broth microdilution method; type: functional
[17] = Protein binding to serum; type: ADME, cell-free; conditions: read-out: PB (converted)

`c1cc2cc(-c3ccc(-c4cc5ccc(C6=NCCCN6)cc5[nH]4)cc3)[nH]c2cc1C1=NCCCN1` gave an MIC50 [1] of 0.015 µg/mL (≈ 0.0317 µM), an MIC90 [1] of 0.06 µg/mL (≈ 0.127 µM) and an MIC50 (Acinetobacter baumannii [2]) of 0.5 µg/mL (≈ 1.06 µM). It also gave an MIC90 (Acinetobacter baumannii [2]) of 4 µg/mL (≈ 8.46 µM), an MIC50 (Haemophilus influenzae) of 1 µg/mL (≈ 2.12 µM) and an MIC90 (Haemophilus influenzae) of 4 µg/mL (≈ 8.46 µM). For the same compound, the MIC50 (Enterococcus faecalis [3]) was 0.06 µg/mL (≈ 0.127 µM), the MIC90 (Enterococcus faecalis [3]) was 0.06 µg/mL (≈ 0.127 µM) and the MIC50 (Burkholderia cepacia) was 0.06 µg/mL (≈ 0.127 µM). The MIC90 (Burkholderia cepacia) was 0.12 µg/mL (≈ 0.254 µM), the MIC50 (Streptococcus pneumoniae [4]) was 0.03 µg/mL (≈ 0.0635 µM) and the MIC90 (Streptococcus pneumoniae [4]) was 0.03 µg/mL (≈ 0.0635 µM). The MIC50 (Klebsiella pneumoniae [5]) was 0.12 µg/mL (≈ 0.254 µM), the MIC90 (Klebsiella pneumoniae [5]) was 0.5 µg/mL (≈ 1.06 µM) and the MIC50 (Escherichia coli) was 0.12 µg/mL (≈ 0.254 µM). It also gave an MIC90 (Escherichia coli) of 0.25 µg/mL (≈ 0.529 µM), an MIC (Streptococcus agalactiae) of 0.03 µg/mL (≈ 0.0635 µM) and an MIC50 (Streptococcus agalactiae) of 0.03 µg/mL (≈ 0.0635 µM). It also gave an MIC90 (Streptococcus agalactiae) of 0.03 µg/mL (≈ 0.0635 µM), an MIC50 (Acinetobacter baumannii [6]) of 2 µg/mL (≈ 4.23 µM) and an MIC90 (Acinetobacter baumannii [6]) of 4 µg/mL (≈ 8.46 µM). The MIC (Enterococcus faecium [7]) was 0.004 µg/mL (≈ 0.00846 µM), the MIC50 (Enterococcus faecium [7]) was 0.004 µg/mL (≈ 0.00846 µM) and the MIC90 (Enterococcus faecium [7]) was 0.004 µg/mL (≈ 0.00846 µM). It also gave a CC50 at 72 h [8] of 4 µg/mL (≈ 8.46 µM), an MIC50 (Streptococcus pneumoniae [9]) of 0.03 µg/mL (≈ 0.0635 µM) and an MIC90 (Streptococcus pneumoniae [9]) of 0.03 µg/mL (≈ 0.0635 µM). For the same compound, the MIC50 (Enterococcus faecium [10]) was 0.004 µg/mL (≈ 0.00846 µM), the MIC90 (Enterococcus faecium [10]) was 0.015 µg/mL (≈ 0.0317 µM) and the MIC50 (Proteus mirabilis) was 1 µg/mL (≈ 2.12 µM). For the same compound, the MIC90 (Proteus mirabilis) was 2 µg/mL (≈ 4.23 µM), the MIC (Serratia marcescens) was 0.12 µg/mL (≈ 0.254 µM) and the MIC50 (Serratia marcescens) was 0.12 µg/mL (≈ 0.254 µM). It also gave an MIC90 (Serratia marcescens) of 0.25 µg/mL (≈ 0.529 µM), an MIC50 (Clostridioides difficile) of 0.06 µg/mL (≈ 0.127 µM) and an MIC90 (Clostridioides difficile) of 0.12 µg/mL (≈ 0.254 µM). For the same compound, the MIC50 [11] was 0.03 µg/mL (≈ 0.0635 µM), the MIC90 [11] was 0.06 µg/mL (≈ 0.127 µM) and the MIC50 (Pseudomonas aeruginosa) was 0.25 µg/mL (≈ 0.529 µM). For the same compound, the MIC90 (Pseudomonas aeruginosa) was 1 µg/mL (≈ 2.12 µM), the MIC50 (Klebsiella pneumoniae [12]) was 0.25 µg/mL (≈ 0.529 µM) and the MIC90 (Klebsiella pneumoniae [12]) was 0.5 µg/mL (≈ 1.06 µM). The MIC50 (Enterococcus faecalis [13]) was 0.015 µg/mL (≈ 0.0317 µM), the MIC90 (Enterococcus faecalis [13]) was 0.03 µg/mL (≈ 0.0635 µM) and the MIC50 (Staphylococcus aureus [14]) was 0.06 µg/mL (≈ 0.127 µM). For the same compound, the MIC90 (Staphylococcus aureus [14]) was 0.12 µg/mL (≈ 0.254 µM), the MIC50 (Staphylococcus aureus [15]) was 0.12 µg/mL (≈ 0.254 µM) and the MIC90 (Staphylococcus aureus [15]) was 0.5 µg/mL (≈ 1.06 µM). It also gave an MIC50 (Streptococcus pneumoniae [16]) of 0.03 µg/mL (≈ 0.0635 µM) and an MIC90 (Streptococcus pneumoniae [16]) of 0.06 µg/mL (≈ 0.127 µM).

For `c1cc2cc(-c3ccc(-c4cc5ccc(C6=NCCN6)cc5[nH]4)cc3)[nH]c2cc1C1=NCCN1`, the MIC50 [1] was 0.015 µg/mL (≈ 0.0337 µM), the MIC90 [1] was 0.03 µg/mL (≈ 0.0675 µM) and the MIC50 (Acinetobacter baumannii [2]) was 8 µg/mL (≈ 18 µM). For the same compound, the MIC90 (Acinetobacter baumannii [2]) was > 16 µg/mL, the MIC50 (Haemophilus influenzae) was 4 µg/mL (≈ 9 µM) and the MIC90 (Haemophilus influenzae) was > 16 µg/mL. For the same compound, the MIC50 (Enterococcus faecalis [3]) was 0.06 µg/mL (≈ 0.135 µM), the MIC90 (Enterococcus faecalis [3]) was 0.06 µg/mL (≈ 0.135 µM) and the MIC (Burkholderia cepacia) was ≤ 0.015 µg/mL. For the same compound, the MIC50 (Burkholderia cepacia) was ≤ 0.015 µg/mL, the MIC90 (Burkholderia cepacia) was 0.06 µg/mL (≈ 0.135 µM) and the MIC50 (Streptococcus pneumoniae [4]) was 0.015 µg/mL (≈ 0.0337 µM). The MIC90 (Streptococcus pneumoniae [4]) was 0.03 µg/mL (≈ 0.0675 µM), the MIC50 (Klebsiella pneumoniae [5]) was 1 µg/mL (≈ 2.25 µM) and the MIC90 (Klebsiella pneumoniae [5]) was > 16 µg/mL. The MIC50 (Escherichia coli) was 0.12 µg/mL (≈ 0.27 µM), the MIC90 (Escherichia coli) was 0.5 µg/mL (≈ 1.12 µM) and the MIC (Streptococcus agalactiae) was 0.03 µg/mL (≈ 0.0675 µM). The MIC50 (Streptococcus agalactiae) was 0.03 µg/mL (≈ 0.0675 µM), the MIC90 (Streptococcus agalactiae) was 0.03 µg/mL (≈ 0.0675 µM) and the MIC50 (Acinetobacter baumannii [6]) was > 16 µg/mL. It also gave an MIC50 (Enterococcus faecium [7]) of 0.004 µg/mL (≈ 0.009 µM), an MIC90 (Enterococcus faecium [7]) of 0.004 µg/mL (≈ 0.009 µM) and a CC50 at 72 h [8] of 33 µg/mL (≈ 74.2 µM). The MIC50 (Streptococcus pneumoniae [9]) was 0.015 µg/mL (≈ 0.0337 µM), the MIC90 (Streptococcus pneumoniae [9]) was 0.12 µg/mL (≈ 0.27 µM) and the MIC50 (Enterococcus faecium [10]) was 0.004 µg/mL (≈ 0.009 µM). For the same compound, the MIC90 (Enterococcus faecium [10]) was 0.015 µg/mL (≈ 0.0337 µM), the MIC50 (Proteus mirabilis) was > 16 µg/mL and the MIC90 (Proteus mirabilis) was > 16 µg/mL. For the same compound, the fraction unbound [17] was 0.75, the MIC50 (Serratia marcescens) was 1 µg/mL (≈ 2.25 µM) and the MIC90 (Serratia marcescens) was 2 µg/mL (≈ 4.5 µM). The MIC50 (Clostridioides difficile) was 0.06 µg/mL (≈ 0.135 µM), the MIC90 (Clostridioides difficile) was 0.12 µg/mL (≈ 0.27 µM) and the MIC50 [11] was 0.008 µg/mL (≈ 0.018 µM). The MIC90 [11] was 0.03 µg/mL (≈ 0.0675 µM), the MIC50 (Pseudomonas aeruginosa) was > 16 µg/mL and the MIC90 (Pseudomonas aeruginosa) was > 16 µg/mL. For the same compound, the MIC50 (Klebsiella pneumoniae [12]) was 2 µg/mL (≈ 4.5 µM), the MIC90 (Klebsiella pneumoniae [12]) was 8 µg/mL (≈ 18 µM) and the MIC50 (Enterococcus faecalis [13]) was 0.03 µg/mL (≈ 0.0675 µM). The MIC90 (Enterococcus faecalis [13]) was 0.06 µg/mL (≈ 0.135 µM), the MIC (Staphylococcus aureus [14]) was 0.06 µg/mL (≈ 0.135 µM) and the MIC50 (Staphylococcus aureus [14]) was 0.06 µg/mL (≈ 0.135 µM). For the same compound, the MIC90 (Staphylococcus aureus [14]) was 0.12 µg/mL (≈ 0.27 µM), the MIC50 (Staphylococcus aureus [15]) was 0.12 µg/mL (≈ 0.27 µM) and the MIC90 (Staphylococcus aureus [15]) was 0.25 µg/mL (≈ 0.562 µM). For the same compound, the MIC (Streptococcus pneumoniae [16]) was 0.03 µg/mL (≈ 0.0675 µM), the MIC50 (Streptococcus pneumoniae [16]) was 0.03 µg/mL (≈ 0.0675 µM) and the MIC90 (Streptococcus pneumoniae [16]) was 0.06 µg/mL (≈ 0.135 µM).
